Data as given in paper PMC9230136 (Pharmaceutics, 2022).
Like-named read-outs stand apart in the source and are kept apart here.

Assays:
Bovine brain tubulin [1] = test: Inhibition of tubulin polymerization; assay type: biochemical
Protocol: (§1) Bovine brain tubulin was purified as described previously. To evaluate the effects of the compounds on tubulin assembly in vitro [35], varying concentrations were preincubated with 10 μM tubulin in 0.8 M monosodium glutamate (pH 6.6) at 30 °C and the reaction mixtures then cooled to 0 °C. After addition of GTP, the mixtures were transferred to 0 °C cuvettes in Beckman Coulter (Brea, CA, USA) DU-7400/DU-7500 recording spectrophotometers equipped with electronic temperature controllers and warmed to 30 °C, and the assembly of tubulin was observed turbidimetrically. […] Inhibition of colchicine binding to tubulin was measured as described before, except that the reaction mixtures contained 0.5 μM tubulin and 5 μM each of [^3H]colchicine and test compound. Only one DEAE-cellulose filter was used per sample, and filtration was by gravity.

Bovine brain tubulin [2] = test: Inhibition of [3H]colchicine binding to tubulin; conditions: tubulin 0.5 µM, [3H]colchicine 5 µM, compound 5 µM
Protocol: as §1

HeLa = test: Antiproliferative assay (resazurin, 72 h); assay type: cell-based, human; conditions: Table 2, mean ± SE
Outline: (§2)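 The highest dose is 10 μM, diluted in five-fold steps, and each condition is run in triplicate. HT-29 uses RPMI-1640 medium; MDA-MB-231, A549 and HeLa use DMEM.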

Jurkat = test: Antiproliferative assay (resazurin, 72 h); assay type: cell-based, human; conditions: Table 2; mean ± SE; 72 h
Outline: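 Jurkat T-cell leukemia cells, grown in RPMI-1640 containing 10% fetal bovine serum, 115 units/mL penicillin G and 115 μg/mL streptomycin, were plated in 96-well plates. After 24 h they received serial 5-fold dilutions of test compounds starting at 10 μM, in triplicate, and were kept 72 h at 37 °C in 5% CO2.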

MDA-MB-231 = test: Antiproliferative assay (resazurin, 72 h); assay type: cell-based, human; conditions: Table 2; mean ± SE; 72 h
Outline: as §2

A549 = test: Antiproliferative assay (resazurin, 72 h); assay type: cell-based, human; conditions: Table 2, mean ± SE
Outline: as §2

HT-29 = test: Antiproliferative assay (resazurin, 72 h); assay type: cell-based, human; conditions: Table 2; mean ± SE; 72 h
Outline: as §2

[3] = test system: A549, MDA-MB-231, HeLa, HT-29 and Jurkat cancer cell lines; test: Antiproliferative activity over the panel of cancer cell lines; assay type: cell-based, human; conditions: mean over the five cancer cell lines; read-out: mean IC50 (antiproliferative activity)
Outline: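 HT-29 grown in RPMI-1640, A549, HeLa and MDA-MB-231 in DMEM, both with 10% FBS. Seeded cells treated after 24 h with 5-fold serial dilutions from 10 μM, in triplicate, for 72 h at 37 °C. Viability read by resazurin fluorescence (ex 535/em 600 nm) after 3–4 h.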

HeLa cells [4] = test: Western blot of cellular protein expression; assay type: cell-based, human; conditions: 24 h
Protocol: Following growth for various times in the presence of 8q, HeLa cells were harvested by centrifugation and washed twice in 0 °C PBS. Cells were lysed with 0.1% (v/v) Triton X-100 containing RNase A at 0 °C, and supernatants were obtained by centrifuging the lysed cells at 15,000× g for 10 min at 4 °C. The protein content of the solutions was measured, and 10 μg of protein from each sample was subjected to sodium dodecyl sulfate polyacrylamide gel electrophoresis. Proteins were transferred by electroblotting to a poly(vinylidene difluoride) Hybond-P membrane from GE Healthcare. Membranes were treated with 5% bovine serum albumin in PBS containing 0.1% Tween 20 overnight at 4 °C. The membranes were then exposed for 2 h at room temperature to primary antibodies directed against cyclin B cdc25c, cdc2 (Y15), BCL-2, cleaved poly (ADP-ribose) polymerase (PARP), MCL-1, XIAP and vinculin (all from Cell Signaling), and subsequently for 1 h to peroxidase-labeled secondary antibodies. The membranes were visualized using ECL select (GE Healthcare), and images were acquired using a Uvitec-Alliance imaging system. Densitometric analysis of Western blots was performed by ImageJ software and the results were normalized to β-actin and represented as fold change with respect to untreated controls.

HeLa cells [5] = test: Cell cycle analysis (PI, flow cytometry); assay type: cell-based, human; conditions: 50 nM, 24 h
Protocol: HeLa cells were seeded at 100,000 cells per well on 6-well tissue culture plates. After 24 h, cells were treated with different test compound concentrations or DMSO for another 24 h. Cells were then fixed and stained with propidium iodide (PI). The fluorescence intensity of 10,000 single-cell events was measured with a Beckman Coulter Cytomics FC500 instrument (Beckman Coulter Italia, Milano, Italy) and the data were analyzed with MultiCycle for Windows software from Phoenix Flow Systems (San Diego, CA, USA).

quiescent PBLs = test: Cytotoxicity in human PBLs, resting; assay type: cell-based; conditions: PBL not stimulated with PHA; 72 h; read-out: IC50 PBLresting
From the text: Human PBLs were obtained from healthy donors by separation on a Lymphoprep^TM (Serumwerk Bernburg AG) gradient and were used for the evaluation of the cytotoxic potential of compounds under study in normal human cells. Buffy coats were obtained from the Blood Transfusion Service, Azienda Ospedaliera of Padova and provided at this institution for research purposes without identifier. The samples were not obtained specifically for this study, and for this reason ethical approval was not required. Informed consent was obtained from blood donors according to Italian law no. 219 (21 October 2005). Data were treated by the Blood Transfusion Service according to Italian law on personal data management “Codice in materia di protezione dati personali” (Testo Unico D.L. Giugno 30, 2003 196).
After extensive washing with saline solution (BioConcept, Hank’s Buffered Saline Solution), quiescent PBLs were resuspended (1.0 × 10^6 cells/mL) in RPMI-1640 medium supplemented with 10% fetal bovine serum. Cytotoxicity evaluations were conducted also in cultures of proliferating PBLs, stimulated with […] PHA (Irvine Scientific). Both resting and proliferating lymphocytes were seeded in 96-well plates and maintained overnight at 37 °C in a humidified 5% CO2 incubator. Serial (5-fold) dilutions of the tested compounds were added, and viability was determined 72 h later by the resazurin viability assay as described above.

Cc1cc(Nc2ccc(F)cc2)n2nc(NCCCc3ccccc3)nc2n1 [Compound 8q]
fold more potent than CA-4, tubulin polymerization (Bovine brain tubulin [1]): about 2 fold | IC50 (Bovine brain tubulin [1]; read-out: IC50 tubulin polymerization): 0.52 µM | IC50 (Bovine brain tubulin [1]; tubulin at 10 μM, read-out: Tubulin Assembly IC50 ± SD): 0.39 ± 0.02 µM | Colchicine Binding % Inhibition ± SD (Bovine brain tubulin [2]): 88 ± 0.8% | IC50 (HeLa): 0.029 µM | IC50 (Jurkat): 0.15 ± 0.02 µM | IC50 (MDA-MB-231): 0.062 ± 0.03 µM | IC50 (A549): 0.13 ± 0.09 µM | IC50 (HT-29): 0.049 ± 0.01 µM | IC50 [3]: 0.083 µM | BCL-2 and MCL-1 expression (HeLa cells [4]; 50 nM): partial reduction in BCL-2 and MCL-1 expression | caspase-3 activation and PARP cleavage (HeLa cells [4]; 50 nM): appearance of the cleaved fragment of the executioner caspase-3 and the consequent cleavage of its substrate PARP | ATR (Ser428) and CHK1 (S345) phosphorylation (HeLa cells [4]): appreciable increase in ATR phosphorylation (Ser428) and of its downstream target CHK1 (S345) | cdc2 phosphorylation (Tyr15) (HeLa cells [4]): significant reduction in cdc2 phosphorylation (Tyr15) | cells arrested in G2/M (HeLa cells [5]): 80% | IC50 (quiescent PBLs): > 10 µM
